Measurements reported in patent US7282507B2, “Indole derivatives as selective androgen receptor modulators (SARMS)” (Janssen Pharmaceutica N.V., priority 2004, dated 2007).

system: testosterone-enhanced ventral prostate and seminal vesicle weights; test: Ventral Prostate and Seminal Vesicle Weight in vivo Assay; set-up: species or system rat; conditions: immature castrated male Sprague Dawley rats, once daily for five days, usually orally 40 mg/kg, with testosterone propionate 2 mg/kg s.c. Also: key: 'active' if the non weight adjusted prostate weight was ≦40 mg or the % Inhibition prostate weight, body weight adjusted was ≧40% @ 2 mg/day dosage; ID50's, if determined, of ≦15 mg/day also indicated an 'active' compound; listed herein as 'inactive' as they did not meet the specified criteria defined above.
Description: Immature (approximately 50 g) castrated male Sprague Dawley rats (Charles River) were treated once daily for five days with test compound (usually given orally at 40 mg/kg in a volume of 0.3 mL, in 30% cyclodextrin or 0.5% methylcellulose vehicle) and with testosterone propionate (given subcutaneously by injection at the nape of the neck at 2 mg/kg, in a volume of 0.1 mL in sesame oil). On the sixth day, the rats were euthanized by asphyxiation in carbon dioxide. Ventral prosatates and seminal vesicles were removed and their wet weights determined.
A test compound was said to be “active” if the non weight adjusted prostate weight was ≦40 mg or the % Inhibition prostate weight, body weight adjusted was ≧40% @ 2 mg/day dosage.

SMILES	active / inactive: inhibition of testosterone-enhanced prostate weight
CCS(=O)(=O)CC(C)(O)c1cc2cc([N+](=O)[O-])c(C(F)(F)F)cc2n1C (single isomer, unassigned) [Compound 232]	active
CC(C)(O[Si](C)(C)C)c1cc2cc(Cl)c(C(F)(F)F)cc2n1S(C)(=O)=O [Compound 270]	inactive
CCSCC(C)(O)c1cc2cc(C#N)c(C)cc2[nH]1 (racemic) [Compound 446]	inactive
CC(C)(O)c1[nH]c2cc(C(F)(F)F)c(C#N)cc2c1I [Compound 278]	active
CCS(=O)(=O)CC(C)(O)c1cc2cc(C#N)c(C(F)(F)F)cc2[nH]1 (racemic) [Compound 407]	inactive
CCSCC(C)(O)c1cc2cc(C#N)c(C(F)(F)F)cc2n1CC#N (racemic) [Compound 323]	inactive
CC(C)(O)c1[nH]c2cc(C(F)(F)F)c([N+](=O)[O-])cc2c1C#N [Compound 291]	active
CCSCC(O)c1[nH]c2cc(C(F)(F)F)c(C#N)cc2c1Br (racemic) [Compound 413]	inactive
CCc1c(C(C)(O)CS(=O)(=O)CC)[nH]c2cc(C(F)(F)F)c(C#N)cc12 (single isomer, unassigned) [Compound 354]	active
CC(C)(O)c1cc2cc(Cl)c(Cl)cc2[nH]1 [Compound 405]	inactive
CCSCC(O)(CC)c1cc2cc(Cl)c(C(F)(F)F)cc2[nH]1 (racemic) [Compound 181]	active
N#Cc1cc2cc(C3(O)CCSC3)[nH]c2cc1C(F)(F)F (racemic) [Compound 15]	inactive
CC(C)(O)c1[nH]c2cc(C(F)(F)F)c([N+](=O)[O-])cc2c1Cl [Compound 275]	active
CCSCC(C)(O)c1cc2nc(C#N)ccc2[nH]1 (racemic) [Compound 6]	inactive
CC[S+]([O-])CC(C)(O)c1[nH]c2cc(C(F)(F)F)c(C#N)cc2c1C (mixture of isomers) [Compound 319]	active
CC(O)(CS(=O)(=O)c1ccc(F)cc1)c1cc2cc(Cl)c(C(F)(F)F)cc2[nH]1 (centres unmarked) [Compound 85]	inactive
CC(C)(O)c1cc2cc([N+](=O)[O-])c(C(F)(F)F)cc2n1S(C)(=O)=O [Compound 273]	inactive
CCSCC(C)(O)c1[nH]c2cc(C(F)(F)F)c(C#N)cc2c1I (single isomer, unassigned) [Compound 349]	active

SMILES	active / inactive: inhibition of testosterone-enhanced prostate weight
CCSCC(C)(O)c1cc2cc(C#N)ccc2[nH]1 (racemic) [Compound 403]	inactive
Cc1c(C(C)(C)O)[nH]c2cc(C(F)(F)F)c([N+](=O)[O-])cc12 [Compound 290]	inactive
CCSCC(O)(c1cc2cc(C#N)c(C(F)(F)F)cc2[nH]1)C(F)(F)F (racemic) [Compound 327]	active
CC(O)(c1cc2cc(C#N)c(C(F)(F)F)cc2[nH]1)C(F)(F)F (centres unmarked) [Compound 335, 2-(2,2,2-Trifluoro-1-hydroxy-1-methyl-ethyl)-6-trifluoromethyl-1H-indole-5-carbonitrile]	active
CC(O)(C[S+]([O-])CC(F)(F)F)c1cc2cc([N+](=O)[O-])c(C(F)(F)F)cc2[nH]1 (mixture of isomers) [Compound 205]	active
CC(C)(O)c1[nH]c2cc(C(F)(F)F)c(C#N)cc2c1C#N [Compound 295]	inactive
CCSCC(O)c1[nH]c2cc(C(F)(F)F)c(C#N)cc2c1I (racemic) [Compound 411]	inactive
CCSCC(C)(O)c1cc2cc([N+](=O)[O-])c(C(F)(F)F)cc2[nH]1 (racemic) [Compound 153]	inactive
O=[N+]([O-])c1cc2cc(C3(O)CCSC3)[nH]c2cc1C(F)(F)F (racemic) [Compound 18]	inactive
CC(O)(c1cc2cc(C#N)c(C(F)(F)F)cc2[nH]1)C(F)(F)F (centres unmarked) [Compound 334, 2-(2,2,2-Trifluoro-1-hydroxy-1-methyl-ethyl)-6-trifluoromethyl-1H-indole-5-carbonitrile]	active
CCSCC(C)(O)c1[nH]c2cc(C(F)(F)F)c([N+](=O)[O-])cc2c1I (single isomer, unassigned) [Compound 244]	active
CC(O)(c1[nH]c2cc(C(F)(F)F)c(C#N)cc2c1Cl)C(F)(F)F (single isomer, unassigned) [Compound 345]	active
CCSCC(C)(O)c1cc2cc(Cl)ccc2[nH]1 (racemic) [Compound 353]	inactive
CC(C)(O)c1[nH]c2cc(C(F)(F)F)c([N+](=O)[O-])cc2c1I [Compound 276]	active
CCSCC(C)(O)c1[nH]c2cc(C(F)(F)F)c([N+](=O)[O-])cc2c1I (single isomer, unassigned) [Compound 241]	inactive
CC(O)(c1cc2cc(C#N)c(C(F)(F)F)cc2n1CC#N)C(F)(F)F (racemic) [Compound 331]	active
COCn1c(C(C)(O)C(F)(F)F)cc2cc(C#N)c(C(F)(F)F)cc21 (racemic) [Compound 332]	active
CCSCC(C)(O)c1c(C)c2cc(C#N)c(C(F)(F)F)cc2n1C (single isomer, unassigned) [Compound 318]	inactive

molecular target: T1, androgen receptor (AdEasy+rAR, L929 cells) (Rattus norvegicus, UniProt P15207); test: L929 Androgen Receptor Functional Assay, Adenovirus Transduction; format: cell-based; conditions: agonist testing, 3000 nM
T1 construct: expressed in transfected cells; host or cells: L929 cells transduced with adenovirus AdEasy+rAR
T1 sequence (P15207 1-902): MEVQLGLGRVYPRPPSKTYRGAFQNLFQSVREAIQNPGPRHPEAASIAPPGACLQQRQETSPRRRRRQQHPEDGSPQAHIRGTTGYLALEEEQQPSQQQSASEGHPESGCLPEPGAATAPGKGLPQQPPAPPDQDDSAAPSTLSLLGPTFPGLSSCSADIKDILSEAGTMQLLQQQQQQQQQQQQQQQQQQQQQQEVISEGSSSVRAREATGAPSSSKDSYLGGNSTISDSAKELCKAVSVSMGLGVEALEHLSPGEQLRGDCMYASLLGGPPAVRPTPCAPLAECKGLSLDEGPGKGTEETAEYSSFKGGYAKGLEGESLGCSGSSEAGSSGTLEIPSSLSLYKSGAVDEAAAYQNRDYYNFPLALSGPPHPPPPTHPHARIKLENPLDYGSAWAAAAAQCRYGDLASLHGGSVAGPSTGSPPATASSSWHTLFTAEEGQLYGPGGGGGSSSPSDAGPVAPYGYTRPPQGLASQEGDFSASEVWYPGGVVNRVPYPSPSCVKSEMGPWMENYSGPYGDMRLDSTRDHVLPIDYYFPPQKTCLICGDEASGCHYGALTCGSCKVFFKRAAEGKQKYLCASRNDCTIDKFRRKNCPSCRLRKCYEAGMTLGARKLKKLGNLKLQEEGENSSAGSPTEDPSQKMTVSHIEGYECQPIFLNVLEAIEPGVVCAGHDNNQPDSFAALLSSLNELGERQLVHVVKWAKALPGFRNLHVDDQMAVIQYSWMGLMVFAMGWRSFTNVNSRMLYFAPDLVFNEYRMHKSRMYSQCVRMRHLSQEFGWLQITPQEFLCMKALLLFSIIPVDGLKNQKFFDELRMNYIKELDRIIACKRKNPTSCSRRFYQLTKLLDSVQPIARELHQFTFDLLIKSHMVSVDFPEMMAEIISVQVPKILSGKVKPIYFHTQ
Description: L929 cells were plated in 96-well plates at 20,000 cells per well, in DMEM/F12 (GIBCO) containing 10% (v/v) charcoal-treated fetal bovine serum (Hyclone) and lacking phenol red. The plates were then incubated overnight at 37° C. in 5% (v/v) humidified CO2.
Test compound dilutions were prepared in 100% (v/v) DMSO, if necessary. Each dilution was made to 1250× the final desired assay concentration.
First, 2 mL of DMEM/F12 lacking phenol red was pipetted into the wells of a 2-mL 96-well assay block. Next, 4 μL of the 1250× test compound dilutions were pipetted into each well of the assay block. The mixtures within the well were then carefully mixed by pipette.
In a 15 mL or 50 mL sterile centrifuge tube, a 2.5 nM (2.5×) dilution of R1881 (methyl-trienolone) in DMEM/F12 lacking phenol red was prepared.
In a second 15 mL or 50 mL centrifuge tube a solution containing an equal volume of DMEM to the first and an equal volume of 100% (v/v) DMSO to the volume of R1881 used in the first tube was prepared.
In a 15 mL or 50 mL sterile centrifuge tube, a dilution in DMEM/F12 of the adenovirus AdEasy+rAR at an moi of 1:500 per well was prepared.
The medium was removed from the 96-well plates by inversion and dried, inverted, very briefly. As soon as possible after medium removal, 40 μL of the diluted unlabeled test compound was added to each well, in duplicate. To each well designated for antagonist testing was added 40 μL of the 2.5 nM R1881 dilution to the wells for antagonist testing. To each well designated for agonist testing was added 40 μL of the DMSO dilution. Then 20 μL of the diluted adenovirus were added to all wells. The plates were incubated for 48 hours at 37° C. in 5% (v/v) humidified CO2.
To each well was added 100 μL of Steady-Glo luciferase assay substrate (Promega) and the plates were placed on a rotary shaker for 1 min. The plates were then incubated at room temperature in the dark for one hour. The contents of each well were then transferred to a white microtiter plate (Packard) and read on a Luminoskan Ascent (Thermo Lab Systems).
L929 AR percent activity was determined by testing dilutions of the test compound using a concentration of 3000 nM unless otherwise noted. L929 percent inhibition was determined by testing dilutions of the test compound using a concentration of 3000 nM. […] Luciferase activity per well were measured and EC50s and IC50s determined by linear regression.

SMILES	% Activity, L929 androgen receptor functional assay [%]
CC(O)(CSc1ccc(N)cc1)c1cc2cc(Cl)c(C(F)(F)F)cc2n1S(C)(=O)=O (racemic) [Compound 125]	−5
CC(O)(CSCC(F)(F)F)c1cc2cc(C#N)c(C(F)(F)F)cc2[nH]1 (racemic) [Compound 211]	−1
